Results as given in patent publication US9598396B2, “Tetrahydrophenanthridinones and tetrahydrocyclopentaquinolinones as PARP and tubulin polymerization inhibitors” (Janssen Pharmaceutica NV, priority 2008, dated 2017).

Columns and labels:
TANK-2 enzyme = TANK-2 enzyme (Homo sapiens (Human), UniProt Q9H2K2); experiment: In vitro Scintillation Proximity Assay (SPA) for TANK-2 inhibitory activity; assay type: biochemical; conditions: auto-poly(ADP-ribosyl)ation, [3H]-NAD+, Ni flash plates (96 or 384 well)
Method: C.2.In Vitro Scintillation Proximity Assay (SPA) for TANK-2 Inhibitory Activity
Compounds of the present invention were tested in an in vitro assay based on SPA technology with Ni Flash plates (96 or 384 well).
In principle, the assay relies upon SPA technology for the detection of auto-poly(ADP-ribosyl)ation of TANK-2 protein using [^3H]-nicotinamide adenine dinucleotide ([^3H]-NAD^+) as ADP-ribosyl donor.
A stock solution of 100 nM [^3H]-NAD^+/NAD (0.1 mCi/ml, supplier: Perkin Elmer) and 25 μM NAD (Sigma) was made in assay buffer (60 mM Tris/HCl, pH 7.4; 0.9 mM DTT; 6 mM MgCl2). The TANK-2 enzyme was produced as described in EP1238063. 60 μl of assay buffer, together with 1 μl of compound in DMSO, 20 μl of [^3H]-NAD^+/NAD and 20 μl of TANK-2 enzyme (final concentration 8 μg/ml) was added per well into a 96-well Ni-coated flash plate (Perkin Elmer). After incubation of the mixture for 120 minutes at room temperature, the reaction was terminated by adding 60 μl of stopsolution (42.6 mg NAD in 6 ml H2O). The plates were covered with a plate sealer and placed in a TopCountNXT™ (Packard) for scintillation counting. Values were expressed as counts per minute (cpm). For each experiment, controls (containing TANK-2 enzyme and DMSO without compound), a blank incubation (containing DMSO but no TANK-2 enzyme or compound) and samples (containing TANK-2 enzyme and compound dissolved in DMSO) were run in parallel. All compounds tested were dissolved and eventually further diluted in DMSO. In first instance, compounds were tested at a concentration of 10^−5M. […] In each test, the blank value was subtracted from both the control and the sample values. The control sample represented maximal TANK-2 enzyme activity. For each sample, the amount of cpm was expressed as a percentage of the mean cpm value of the controls. […] Herein the effects of test compounds are expressed as pIC50 (the negative log value of the IC50-value). As reference compounds, 3-aminobenzamide and 4-amino-1,8-naphtalimide were included to validate the SPA assay. Herein the assay was described using 96-well plates. In the assay using 384-well plates the same final concentrations were used and volumes were adapted.

[1] = system: human prostate cancer PC3 cells; experiment: Eb1 Comet (microtubule disruption) assay; assay type: cell-based; conditions: 1 hour treatment, LAC = concentration where Eb1 foci absent in at least 50% of treated cells
Source text: Example C.6 Eb1 Comet (Microtubule Disruption) Assay
The Eb1 Comet assay relies on the detection of the Eb1 protein at the plus end of polymerizing microtubules (Mimori-Kiyosue, 2000) using indirect immunofluorescence. Disruption of microtubule dynamics through de-polymerization or stabilization results in a de-localization of Eb1 from the growing microtubule ends and this is visualized by the disappearance of Eb1 containing cytoplasmic foci.
Briefly, human prostate cancer PC3 cells obtained from the American Type Culture Collection were grown in 96-well plates (Greiner, cat. no. 655090) in HAM's F12 medium as recommended by the provider (ATCC). The cells were treated for 1 hour at 37° C. with compounds dissolved in DMSO (0.6% final DMSO concentration). The culture medium was then removed by aspiration and the cells were fixed by adding cold methanol (−20 C). After a 15 minutes incubation at −20° C., the cells were washed twice with DPBS (Gibco) containing 0.5% Triton X-100. Mouse Eb1 antibody (BD Transduction Laboratories, cat. no. 610534) was added to the cells (1/250 dilution in DPBS containing 1% BSA) and incubated overnight at room temperature. The antibody was subsequently removed and the cells washed twice with DPBS, 0.5% Triton X-100. Secondary goat anti-mouse antibody conjugated to Alexa 488 fluorescent dye (Molecular Probes) was added at a 1/500 dilution in DPBS, 1% BSA and incubated for 1 hour at 37° C. The cells were washed twice with DPBS, 0.5% Triton X-100 and then DPBS containing 0.5% Triton X-100 and 1/5000 Hoechst 33342 (Molecular Probes) was added. Microscopy based Eb1 foci visualization was carried out using an IN Cell Analyser 1000 (Amersham Biosciences) using a 20× objective. Compound dependent microtubule disruption was visually determined by the disappearance in Eb1 foci. The lowest active concentration (LAC) was determined as the concentration where Eb1 foci were absent in at least 50% of the treated cells. Herein the effects of tested compounds are expressed as pLAC (the negative log value of the LAC value) (see Table 3).

Chain of TANK-2 enzyme (Q9H2K2 whole entry): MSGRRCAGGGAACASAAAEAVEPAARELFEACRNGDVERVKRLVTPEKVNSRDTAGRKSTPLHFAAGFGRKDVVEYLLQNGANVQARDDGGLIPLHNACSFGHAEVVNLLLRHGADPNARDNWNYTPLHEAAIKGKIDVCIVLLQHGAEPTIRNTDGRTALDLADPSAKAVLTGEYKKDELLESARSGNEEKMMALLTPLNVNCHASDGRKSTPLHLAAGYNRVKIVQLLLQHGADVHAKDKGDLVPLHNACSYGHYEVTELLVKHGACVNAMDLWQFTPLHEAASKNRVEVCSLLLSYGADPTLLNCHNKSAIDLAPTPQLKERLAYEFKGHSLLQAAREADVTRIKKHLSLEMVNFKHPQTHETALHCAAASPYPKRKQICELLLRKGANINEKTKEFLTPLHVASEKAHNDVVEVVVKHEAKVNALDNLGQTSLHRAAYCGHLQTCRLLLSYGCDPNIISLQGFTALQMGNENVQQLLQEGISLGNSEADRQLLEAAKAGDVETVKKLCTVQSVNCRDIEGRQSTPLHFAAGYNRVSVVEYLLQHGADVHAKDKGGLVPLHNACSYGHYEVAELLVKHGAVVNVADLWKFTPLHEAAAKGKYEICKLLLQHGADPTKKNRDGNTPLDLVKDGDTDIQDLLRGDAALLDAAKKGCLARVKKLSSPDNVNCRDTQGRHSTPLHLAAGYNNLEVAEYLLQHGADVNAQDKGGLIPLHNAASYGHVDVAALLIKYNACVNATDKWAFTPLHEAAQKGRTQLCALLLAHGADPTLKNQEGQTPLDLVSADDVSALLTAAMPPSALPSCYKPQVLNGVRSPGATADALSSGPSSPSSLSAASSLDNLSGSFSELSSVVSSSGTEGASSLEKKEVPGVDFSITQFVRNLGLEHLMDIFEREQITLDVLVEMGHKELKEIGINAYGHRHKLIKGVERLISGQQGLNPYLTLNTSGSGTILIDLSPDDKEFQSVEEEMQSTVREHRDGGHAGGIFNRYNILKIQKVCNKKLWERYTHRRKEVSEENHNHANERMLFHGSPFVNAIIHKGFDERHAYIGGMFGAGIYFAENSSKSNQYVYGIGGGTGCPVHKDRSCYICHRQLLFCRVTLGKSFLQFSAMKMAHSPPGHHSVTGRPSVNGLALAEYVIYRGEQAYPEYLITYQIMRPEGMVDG

| SMILES | in vitro SPA assay TANK-2 pIC50 (TANK-2 enzyme) | Cellular assay Eb1 pLAC [1] |
| --- | --- | --- |
| CC(C#N)(Cc1ccccc1)c1ccc2c3c(c(=O)[nH]c2c1)CCCC3 (centres unmarked) [Co. No. 1] | 7.85 | – |
| CC(C#N)(Cc1cccc(C#N)c1)c1ccc2c3c(c(=O)[nH]c2c1)CCCC3 (centres unmarked) [Co. No. 4] | 7.76 | – |
| CC(C#N)(Cc1cccc(F)c1)c1ccc2c3c(c(=O)[nH]c2c1)CCCC3 (centres unmarked) [Co. No. 5] | 7.71 | 7 |
| CC(C#N)(Cc1cccc(C#N)n1)c1ccc2c3c(c(=O)[nH]c2c1)CCCC3 (centres unmarked) [Co. No. 7] | 8.02 | 7.5 |
| CC(C#N)(Cc1cccc(Cl)c1)c1ccc2c3c(c(=O)[nH]c2c1)CCCC3 (centres unmarked) [Co. No. 8] | 7.28 | – |
| CC(C#N)(CCOc1ccc(C#N)cc1)c1ccc2c3c(c(=O)[nH]c2c1)CCCC3 (centres unmarked) [Co. No. 17] | 7.28 | – |
